The text below walks through data of patent US20210253568A1, “AZAINDOLE DERIVATIVES AS RHO-KINASE INHIBITORS” (CHIESI FARMACEUTICI S.p.A., priority 2018, published 2021).

Where only a bound is given, the exact number is not on record here.

One assay concerns the target ROCK 1 (Homo sapiens, UniProt Q13464). Description: In vitro Rho kinase inhibitory activity assay (ADP-Glo), Rho kinase 1. Particulars: Ki by Cheng-Prusoff from IC50; 10 μM ATP, 25° C., expressed as range of activity. The class given is biochemical. The protocol:
(§1) The effectiveness of compounds of the present invention to inhibit Rho kinase activity can be determined in a 10 μl assay containing 40 mM Tris pH7.5, 20 mM MgCl2 0.1 mg/mi BSA, 50 μM DTT and 2.5 μM peptide substrate (Myelin Basic Protein) using an ADP-Glo kit (Promega). Compounds were dissolved in DMSO such that the final concentration of DMSO was 1% in the assay. All reactions/incubations are performed at 25° C. Compound (2 ul) and either Rho kinase 1 or 2 (4 μl) were mixed and incubated for 30 mins. Reactions were initiated by addition of ATP (4 μl) such that the final concentration of ATP in the assay was 10 μM. After a 1 hour incubation 10 μl of ADP-Glo Reagent was added and after a further 45 minute incubation 20 ul of Kinase Detection Buffer was added and the mixture incubated for a further 30 minutes. The luminescent signal was measured on a luminometer. […] Compounds were tested in dose-response format and the inhibition of kinase activity was calculated at each concentration of compound. To determine the IC50 (concentration of compound required to inhibit 50% of the enzyme activity) data were fit to a plot of % inhibition vs Log10 compound concentration using a sigmoidal fit with a variable slope and fixing the maximum to 100% and the minimum to 0%. To determine the Ki values the Cheng-Prusoff equation was utilized (Ki=IC50/(1+[S]/Km).

Another assay deals with ROCK 2 (Homo sapiens, UniProt O75116). Description: In vitro Rho kinase inhibitory activity assay (ADP-Glo), Rho kinase 2. The class given is biochemical. Particulars: Ki by Cheng-Prusoff from IC50; 10 μM ATP, 25° C., expressed as range of activity. Here is the method: as §1
Sequence of ROCK 2 (O75116 whole entry): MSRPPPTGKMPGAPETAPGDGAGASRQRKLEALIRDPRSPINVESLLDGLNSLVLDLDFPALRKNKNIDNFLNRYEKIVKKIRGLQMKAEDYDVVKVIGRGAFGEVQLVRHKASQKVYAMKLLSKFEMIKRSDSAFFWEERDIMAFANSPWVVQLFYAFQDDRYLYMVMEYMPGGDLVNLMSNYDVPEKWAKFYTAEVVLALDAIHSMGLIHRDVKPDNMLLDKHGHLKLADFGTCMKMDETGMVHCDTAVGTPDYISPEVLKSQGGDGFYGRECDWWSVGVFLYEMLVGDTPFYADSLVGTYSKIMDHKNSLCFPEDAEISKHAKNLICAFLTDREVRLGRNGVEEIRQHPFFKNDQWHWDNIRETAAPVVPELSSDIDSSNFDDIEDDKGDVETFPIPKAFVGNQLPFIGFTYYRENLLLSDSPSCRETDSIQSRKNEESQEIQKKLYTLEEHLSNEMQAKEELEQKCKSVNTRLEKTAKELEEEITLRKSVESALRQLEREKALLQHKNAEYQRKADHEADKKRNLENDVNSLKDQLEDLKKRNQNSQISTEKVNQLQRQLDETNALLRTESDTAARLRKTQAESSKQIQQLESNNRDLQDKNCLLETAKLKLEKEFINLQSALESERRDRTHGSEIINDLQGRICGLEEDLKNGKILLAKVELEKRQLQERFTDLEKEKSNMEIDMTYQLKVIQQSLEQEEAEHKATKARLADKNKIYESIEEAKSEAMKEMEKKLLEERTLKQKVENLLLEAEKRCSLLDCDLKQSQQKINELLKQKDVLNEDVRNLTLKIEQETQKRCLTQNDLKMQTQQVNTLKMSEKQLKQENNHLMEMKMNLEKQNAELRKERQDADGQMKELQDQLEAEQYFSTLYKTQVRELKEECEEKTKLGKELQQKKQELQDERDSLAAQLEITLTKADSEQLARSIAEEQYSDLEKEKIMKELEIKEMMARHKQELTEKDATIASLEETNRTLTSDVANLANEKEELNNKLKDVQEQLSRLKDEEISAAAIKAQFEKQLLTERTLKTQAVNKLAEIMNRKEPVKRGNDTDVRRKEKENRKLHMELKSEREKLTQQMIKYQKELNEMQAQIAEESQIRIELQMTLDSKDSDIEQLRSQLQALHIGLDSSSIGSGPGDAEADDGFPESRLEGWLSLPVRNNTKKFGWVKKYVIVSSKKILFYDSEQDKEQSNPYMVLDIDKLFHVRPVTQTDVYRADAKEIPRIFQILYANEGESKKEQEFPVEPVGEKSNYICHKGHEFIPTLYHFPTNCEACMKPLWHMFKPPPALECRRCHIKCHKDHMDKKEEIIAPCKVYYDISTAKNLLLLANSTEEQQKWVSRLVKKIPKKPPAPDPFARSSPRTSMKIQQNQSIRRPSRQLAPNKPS

Sequence of ROCK 1 (Q13464 whole entry): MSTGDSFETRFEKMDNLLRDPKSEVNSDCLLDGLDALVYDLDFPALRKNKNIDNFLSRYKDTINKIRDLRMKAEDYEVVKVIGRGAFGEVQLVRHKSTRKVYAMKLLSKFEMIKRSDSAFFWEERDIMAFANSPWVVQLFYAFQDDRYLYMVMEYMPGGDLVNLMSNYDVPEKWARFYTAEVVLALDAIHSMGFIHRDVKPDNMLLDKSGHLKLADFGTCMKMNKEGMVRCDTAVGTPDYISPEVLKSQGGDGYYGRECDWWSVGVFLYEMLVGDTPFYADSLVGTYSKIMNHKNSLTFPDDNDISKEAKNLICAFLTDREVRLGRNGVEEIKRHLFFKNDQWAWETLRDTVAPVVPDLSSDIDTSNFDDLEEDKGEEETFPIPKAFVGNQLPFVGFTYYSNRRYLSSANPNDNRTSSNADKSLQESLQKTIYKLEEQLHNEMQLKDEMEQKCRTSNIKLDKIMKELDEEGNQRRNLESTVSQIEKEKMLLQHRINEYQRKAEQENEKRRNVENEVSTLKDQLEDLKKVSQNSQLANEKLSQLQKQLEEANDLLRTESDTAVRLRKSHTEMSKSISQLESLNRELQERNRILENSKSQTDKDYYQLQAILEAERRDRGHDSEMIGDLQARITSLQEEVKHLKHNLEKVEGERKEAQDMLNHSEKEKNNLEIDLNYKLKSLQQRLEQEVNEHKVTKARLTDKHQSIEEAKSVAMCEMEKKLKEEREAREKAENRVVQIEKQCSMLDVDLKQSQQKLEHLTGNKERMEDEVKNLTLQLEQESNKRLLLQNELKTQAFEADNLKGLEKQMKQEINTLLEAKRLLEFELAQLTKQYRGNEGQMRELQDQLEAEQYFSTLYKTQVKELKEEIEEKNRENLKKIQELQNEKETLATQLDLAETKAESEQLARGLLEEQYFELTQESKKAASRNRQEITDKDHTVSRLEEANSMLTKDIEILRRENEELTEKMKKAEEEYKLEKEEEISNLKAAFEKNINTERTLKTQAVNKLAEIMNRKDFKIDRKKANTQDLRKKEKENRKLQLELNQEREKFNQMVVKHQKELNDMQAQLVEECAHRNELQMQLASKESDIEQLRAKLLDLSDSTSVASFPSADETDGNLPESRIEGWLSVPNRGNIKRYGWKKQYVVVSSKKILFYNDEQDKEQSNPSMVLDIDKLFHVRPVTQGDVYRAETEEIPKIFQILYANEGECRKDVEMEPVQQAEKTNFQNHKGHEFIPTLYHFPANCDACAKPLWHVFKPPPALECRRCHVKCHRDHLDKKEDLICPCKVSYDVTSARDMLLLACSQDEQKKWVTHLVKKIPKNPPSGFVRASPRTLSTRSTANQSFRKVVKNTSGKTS

As for `NCc1ccc(Oc2ccnc3[nH]cc(-c4cnc(NC(=O)Cc5ccccc5)s4)c23)cc1` [Example 34, N-(5-(4-(4-(aminomethyl)phenoxy)-1H-pyrrolo[2,3-b]pyridin-3-yl)thiazol-2-yl)-2-phenylacetamide], the values for the Ki on ROCK 1 and on ROCK 2 were 3 to 30 nM and below 3 nM, respectively.
The matching figures for `c1ccc(CNc2cc(-c3c[nH]c4ncnc(Oc5ccc6c(c5)CNCC6)c34)ccn2)cc1` [Example 56, N-benzyl-4-(4-((1,2,3,4-tetrahydroisoquinolin-7-yl)oxy)-7H-pyrrolo[2,3-d]pyrimidin-5-yl)pyridin-2-amine]: 3 to 30 nM and below 3 nM.
On the same counts, the results for `NCc1ccc(Oc2ccnc3[nH]cc(-c4cnn(Cc5ccncc5)c4)c23)c(F)c1` [Example 23, (3-fluoro-4-((3-(1-(pyridin-4-ylmethyl)-1H-pyrazol-4-yl)-1H-pyrrolo[2,3-b]pyridin-4-yl)oxy)phenyl)methanamine] are 3 to 30 nM and below 3 nM.
Take `c1cc(-c2c[nH]c3nccc(Oc4ccc5c(c4)CNCC5)c23)cc(NCC2CC2)n1` [Example 36, N-(cyclopropylmethyl)-4-(4-((1,2,3,4-tetrahydroisoquinolin-7-yl)oxy)-1H-pyrrolo[2,3-b]pyridin-3-yl)pyridin-2-amine]: the Ki on ROCK 1 and on ROCK 2 was below 3 nM throughout.
Turning to `O=C(Cc1ccccc1)Nc1nnc(-c2c[nH]c3nccc(Oc4ccc5c(c4)CNCC5)c23)o1` [Example 14, 2-phenyl-N-(5-(4-((1,2,3,4-tetrahydroisoquinolin-7-yl)oxy)-1H-pyrrolo[2,3-b]pyridin-3-yl)-1,3,4-oxadiazol-2-yl)acetamide], the inhibitory constant (Ki) on ROCK 1 and at ROCK 2 was below 3 nM in each case.
Regarding `NC(C(=O)Nc1cc(-c2c[nH]c3nccc(Oc4ccc5c(c4)CNCC5)c23)ccn1)c1ccccc1` (stereo not shown) [Example 45, 2-amino-2-phenyl-N-(4-(4-((1,2,3,4-tetrahydroisoquinolin-7-yl)oxy)-1H-pyrrolo[2,3-b]pyridin-3-yl)pyridin-2-yl)acetamide], the Ki at ROCK 1 and on ROCK 2 was below 3 nM throughout.
In the case of `c1cc(-c2c[nH]c3nccc(Oc4ccc5c(c4)CNCC5)c23)cc(NC[C@H]2CCCO2)n1` [Example 19, (R)-N-((tetrahydrofuran-2-yl)methyl)-4-(4-((1,2,3,4-tetrahydroisoquinolin-7-yl)oxy)-1H-pyrrolo[2,3-b]pyridin-3-yl)pyridin-2-amine], the Ki on ROCK 1 and on ROCK 2 was below 3 nM in each case.
For `c1ccc(CNc2cc(-c3c[nH]c4nccc(Oc5cnc6c(c5)CNCC6)c34)ccn2)cc1` [Example 49, N-benzyl-4-(4-((5,6,7,8-tetrahydro-1,6-naphthyridin-3-yl)oxy)-1H-pyrrolo[2,3-b]pyridin-3-yl)pyridin-2-amine], the Ki at ROCK 1 and at ROCK 2 was above 30 nM throughout.
`c1nc(NCc2nccs2)cc(-c2c[nH]c3nccc(Oc4ccc5c(c4)CNCC5)c23)n1` [Example 30, 6-(4-((1,2,3,4-tetrahydroisoquinolin-7-yl)oxy)-1H-pyrrolo[2,3-b]pyridin-3-yl)-N-(thiazol-2-ylmethyl)pyrimidin-4-amine]: the inhibition constant Ki at ROCK 1 and at ROCK 2 was below 3 nM throughout.
In the case of `COCCNc1cc(-c2c[nH]c3nccc(Oc4ccc5c(c4)CNCC5)c23)ccn1` [Example 20, N-(2-methoxyethyl)-4-(4-((1,2,3,4-tetrahydroisoquinolin-7-yl)oxy)-1H-pyrrolo[2,3-b]pyridin-3-yl)pyridin-2-amine], the Ki on ROCK 1 is 3 to 30 nM; on ROCK 2, below 3 nM.
The matching figures for `O=C(Nc1cc(-c2c[nH]c3nccc(Oc4ccc5c(c4)CNCC5)c23)ncn1)c1ccccc1` [Example 50, N-(6-(4-((1,2,3,4-tetrahydroisoquinolin-7-yl)oxy)-1H-pyrrolo[2,3-b]pyridin-3-yl)pyrimidin-4-yl)benzamide]: 3 to 30 nM and below 3 nM.
On the same counts, the results for `Cc1ccc(S(=O)(=O)CCNc2cc(-c3c[nH]c4nccc(Oc5c(F)cc(CN)cc5F)c34)ncn2)cc1` [Example 4, 6-(4-(4-(aminomethyl)-2,6-difluorophenoxy)-1H-pyrrolo[2,3-b]pyridin-3-yl)-N-(2-tosylethyl)pyrimidin-4-amine] are below 3 nM and below 3 nM.
Take `O=C(Nc1cc(-c2c[nH]c3nccc(Oc4ccc5c(c4)CNCC5)c23)ccn1)C1CC1` [Example 39, N-(4-(4-((1,2,3,4-tetrahydroisoquinolin-7-yl)oxy)--1H-pyrrolo[2,3-b]pyridin3-yl)pyridin-2-yl)cyclopropanecarboxamide]: the values for the inhibition constant (Ki) on ROCK 1 and on ROCK 2 were 3 to 30 nM and below 3 nM, respectively.
On the same counts, the results for `NCc1cc(F)c(Oc2ncnc3[nH]cc(-c4ccnc(NCc5ccccc5)c4)c23)c(F)c1` [Example 5, 4-(4-(4-(aminomethyl)-2,6-difluorophenoxy)-7H-pyrrolo[2,3-d]pyrimidin-5-yl)-N-benzylpyridin-2-amine] are below 3 nM and below 3 nM.
On the same counts, the results for `c1cc(-c2c[nH]c3nccc(Oc4ccc5c(c4)CNCC5)c23)cc(NC[C@@H]2CCCO2)n1` [Example 18, (S)-N-((tetrahydrofuran-2-yl)methyl)-4-(4-((1,2,3,4-tetrahydroisoquinolin-7-yl)oxy)-1H-pyrrolo[2,3-b]pyridin-3-yl)pyridin-2-amine] are below 3 nM and below 3 nM.
On the same counts, the results for `c1ccc(CNc2cc(-c3c[nH]c4nccc(Oc5ccc6c(c5)CNCC6)c34)ncn2)cc1` [Example 25, N-benzyl-6-(4-((1,2,3,4-tetrahydroisoquinolin-7-yl)oxy)-1H-pyrrolo[2,3-b]pyridin-3-yl)pyrimidin-4-amine] are below 3 nM and below 3 nM.
As for `O=C(NCc1ccccc1)c1cc(-c2c[nH]c3nccc(Oc4ccc5c(c4)CNCC5)c23)on1` [Example 13, N-benzyl-5-(4-((1,2,3,4-tetrahydroisoquinolin-7-yl)oxy)-1H-pyrrolo[2,3-b]pyridin-3-yl)isoxazole-3-carboxamide], the inhibitory constant (Ki) at ROCK 1 was 3 to 30 nM; at ROCK 2, below 3 nM.
The matching figures for `c1ccc(CNc2nccc(-c3c[nH]c4nccc(Oc5ccc6c(c5)CNCC6)c34)n2)cc1` [Example 26, N-benzyl-4-(4-((1,2,3,4-tetrahydroisoquinolin-7-yl)oxy)-1H-pyrrolo[2,3-b]pyridin-3-yl)pyrimidin-2-amine]: below 3 nM and below 3 nM.
The matching figures for `CC1(C(=O)Nc2cc(-c3c[nH]c4nccc(Oc5ccc6c(c5)CNCC6)c34)ccn2)CC1` [Example 44, 1-methyl-N-(4-(4-((1,2,3,4-tetrahydroisoquinolin-7-yl)oxy)-1H-pyrrolo[2,3-b]pyridin-3-yl)pyridin-2-yl)cyclopropanecarboxamide]: 3 to 30 nM and below 3 nM.
On the same counts, the results for `O=C(Nc1cc(-c2c[nH]c3nccc(Oc4ccc5c(c4)CNCC5)c23)ccn1)C1CCCCC1` [Example 40, N-(4-(4-((1,2,3,4-tetrahydroisoquinolin-7-yl)oxy)-1H-pyrrolo[2,3-b]pyridin-3-yl)pyridin-2-yl)cyclohexanecarboxamide] are below 3 nM and below 3 nM.
As to `c1ccc(CNc2cc(-c3c[nH]c4nccc(Oc5ccc6c(c5)CNCC6)c34)on2)cc1` [Example 9, N-benzyl-5-(4-((1,2,3,4-tetrahydroisoquinolin-7-yl)oxy)-1H-pyrrolo[2,3-b]pyridin-3-yl)isoxazol-3-amine], the Ki at ROCK 1 is 3 to 30 nM; on ROCK 2, below 3 nM.
In the case of `NCc1cc(F)c(Oc2ccnc3[nH]cc(-c4ccnc(NCC5CC5)c4)c23)c(F)c1` [Example 8, 4-(4-(4-(aminomethyl)-2,6-difluorophenoxy)-1H-pyrrolo[2,3-b]pyridin-3-yl)-N-(cyclopropylmethyl)pyridin-2-amine], the Ki at ROCK 1 and at ROCK 2 was below 3 nM throughout.
In the case of `NCc1ccc(Oc2ccnc3[nH]cc(-c4cncc(OCc5ccccc5)c4)c23)cc1` [Example 2, (4-((3-(5-(benzyloxy)pyridin-3-yl)-1H-pyrrolo[2,3-b]pyridin-4-yl)oxy)phenyl)methanamine], the Ki on ROCK 1 and on ROCK 2 was above 30 nM each time.
As to `NCc1ccc(Oc2ccnc3[nH]cc(-c4ccnc(NCc5ccccc5)c4)c23)cc1` [Example 15, 4-(4-(4-(aminomethyl)phenoxy)-1H-pyrrolo[2,3-b]pyridin-3-yl)-N-benzylpyridin-2-amine], the Ki at ROCK 1 is 3 to 30 nM; on ROCK 2 it was below 3 nM.
With `c1ccc(CNc2ccnc(-c3c[nH]c4nccc(Oc5ccc6c(c5)CNCC6)c34)n2)cc1` [Example 28, N-benzyl-2-(4-((1,2,3,4-tetrahydroisoquinolin-7-yl)oxy)-1H-pyrrolo[2,3-b]pyridin-3-yl)pyrimidin-4-amine], the inhibition constant (Ki) on ROCK 1 and at ROCK 2 was above 30 nM in each case.
On to `c1cc(-c2c[nH]c3nccc(Oc4ccc5c(c4)CNCC5)c23)cc(NCC2CCOCC2)n1` [Example 38, N-((tetrahydro-2H-pyran-4-yl)methyl)-4-(4-((1,2,3,4-tetrahydroisoquinolin-7-yl)oxy)-1H-pyrrolo[2,3-b]pyridin-3-yl)pyridin-2-amine], for which the Ki at ROCK 1 and at ROCK 2 was below 3 nM each time.
